Results taken from US11034672B1, “Tyrosine kinase inhibitor compositions, methods of making and methods of use” (Black Diamond Therapeutics, Inc., priority 2018, dated 2021).

Assays:
Format in all cases: cell-based
EGFR NPH [1] = biological target: T1, EGFR NPH (Homo sapiens, UniProt P00533, DUP771-773); test: BaF3 cell proliferation assay, EGFR NPH (Table A); conditions: potency code, 3 days, CellTiterGlo, read-out: EGFR NPH (Activity for Inhibiting EGFR)
T1 construct: expressed in transfected cells; host or cells: BaF3 (murine pro-B), retroviral pMXs-IRES-Blasticidin
Experimental: (§1) Retroviral Production: EGFR mutants were subcloned into pMXs-IRES-Blasticidin (RTV-016, Cell Biolabs, San Diego, Calif.). Retroviral expression vector retrovirus was produced by transient transfection of HEK 293T cells with the retroviral EGFR mutant expression vector pMXs-IRES-Blasticidin (RTV-016, Cell Biolabs), pCMV-Gag-Pol vector and pCMV-VSV-G-Envelope vector. Briefly, HEK 293T/17 cells were plated in 100 mm collagen coated plate (354450, Corning Life Sciences, Tewksbury, Mass.) (4×10^5 per plate) and incubated overnight. The next day, retroviral plasmids (3 μg of EGFR mutant, 1.0 μg of pCMV-Gag-Pol and 0.5 μg pCMV-VSV-G) were mixed in 500 μl of Optimem (31985, Life Technologies). The mixture was incubated at room temperature for 5 min and then added to Optimem containing transfection reagent Lipofectamine (11668, Invitrogen) and incubated for 20 minutes. Mixture was then added dropwise to HEK 293T cells. The next day the medium was replaced with fresh culture medium and retrovirus was harvested @ 24 and 48 hrs.
(§2) Generation of EGFR mutant stable cell lines: BaF3 cells (1.5E5 cells) were infected with 1 ml of viral supernatant supplemented with 8 μg/ml polybrene by centrifuging for 30 min at 1000 rpm. Cells were placed in a 37° C. incubator overnight. Cells were then spun for 5 minutes to pellet the cells. Supernatant was removed and cells re-infected a fresh 1 ml of viral supernatant supplemented with 8 μg/ml polybrene by centrifuging for 30 min at 1000 rpm. Cells were placed in 37° C. incubator overnight. […] After 48 hours cells were selected for retroviral infection in 10 μg/ml Blasticidin for one week. Blasticidin resistant populations were washed twice in phosphate buffered saline before plating in media lacking IL-3 to select for IL-3 independent growth.
(§3) EC50 values were determined with the same application.

EGFR V3 [2] = biological target: T2, EGFR V3 (Homo sapiens, UniProt P00533, DELINS30-297G); test: Activity for inhibiting EGFR (Table A), EGFR V3 (EGFR-Viii); conditions: read-out: EGFR V3, potency code (IC50)
T2 construct: expressed in transfected cells; host or cells: BaF3 (murine pro-B), retroviral pMXs-IRES-Blasticidin

HER2 S310F [3] = biological target: T3, HER2 S310F (Homo sapiens, UniProt P04626, S310F); test: BaF3 cell proliferation assay, HER2 S310F (Table B); conditions: potency code, 3 days, CellTiterGlo, read-out: HER2 S310F (Activity for Inhibiting HER2)
T3 construct: expressed in transfected cells; host or cells: BaF3 (murine pro-B)

HER2 YVMA [4] = biological target: T4, HER2 YVMA (Homo sapiens, UniProt P04626, INS775YVMA); test: BaF3 cell proliferation assay, HER2 YVMA (Table B); conditions: potency code, 3 days, CellTiterGlo, read-out: HER2 YVMA (Activity for Inhibiting HER2)
T4 construct: expressed in transfected cells; host or cells: BaF3 (murine pro-B)

EGFR V3 [5] = biological target: T2, EGFR V3; test: BaF3 cell proliferation assay, EGFR V3 (Table A); conditions: potency code, 3 days, CellTiterGlo, read-out: EGFR V3 (Activity for Inhibiting EGFR)
In short: (§4)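 Mouse BaF3 cells were retrovirally transduced (pMXs-IRES-Blasticidin, VSV-G pseudotyped virus from HEK 293T) with the human EGFR or HER2 variant, selected in 10 μg/ml Blasticidin for one week, then made IL-3 independent. EC50 values come from proliferation of these lines.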

EGFR NPH [6] = biological target: T1, EGFR NPH; test: Activity for inhibiting EGFR (Table A), EGFR NPH; conditions: read-out: EGFR NPH, potency code (IC50)
EGFR SVD [7] = biological target: T5, EGFR SVD (Homo sapiens, UniProt P00533, DUP768-770); test: BaF3 cell proliferation assay, EGFR SVD (Table A); conditions: potency code, 3 days, CellTiterGlo, read-out: EGFR SVD (Activity for Inhibiting EGFR)
T5 construct: expressed in transfected cells; host or cells: BaF3 (murine pro-B), retroviral pMXs-IRES-Blasticidin
Experimental: as §1, §2, §3

HER2 WT [8] = biological target: T6, HER2 WT (Homo sapiens, UniProt P04626); test: BaF3 cell proliferation assay, HER2 WT (Table B); conditions: potency code, 3 days, CellTiterGlo, read-out: HER2 WT (Activity for Inhibiting HER2)
HER2 WT [9] = biological target: T6, HER2 WT; test: Activity for inhibiting HER2 (Table B), HER2 WT
EGFR SVD [10] = biological target: T5, EGFR SVD; test: Activity for inhibiting EGFR (Table A), EGFR SVD; conditions: read-out: EGFR SVD, potency code (IC50)
HER2 S310F [11] = biological target: T3, HER2 S310F; test: Activity for inhibiting HER2 (Table B), HER2 S310F; conditions: read-out: HER2 S310F, potency code (IC50)
Experimental: as §3

HER2 YVMA [12] = biological target: T4, HER2 YVMA; test: Activity for inhibiting HER2 (Table B), HER2 YVMA; conditions: read-out: HER2 YVMA, potency code (IC50)
Experimental: as §3

EGFR WT [13] = biological target: T7, EGFR WT (Homo sapiens, UniProt P00533); test: BaF3 cell proliferation assay, EGFR WT (Table A); conditions: potency code, 3 days, CellTiterGlo, read-out: EGFR WT (Activity for Inhibiting EGFR)
In short: as §4

EGFR WT [14] = biological target: T7, EGFR WT; test: Activity for inhibiting EGFR (Table A), EGFR WT; conditions: read-out: EGFR WT, potency code (IC50)
[15] = Table B, read-out: HER2 WT, potency code (IC50)
[16] = text lists of compounds, read-out: IC50 value for inhibiting wild-type HER2

T2 sequence (P00533 with tags, fused parts or gaps DELINS30-297G): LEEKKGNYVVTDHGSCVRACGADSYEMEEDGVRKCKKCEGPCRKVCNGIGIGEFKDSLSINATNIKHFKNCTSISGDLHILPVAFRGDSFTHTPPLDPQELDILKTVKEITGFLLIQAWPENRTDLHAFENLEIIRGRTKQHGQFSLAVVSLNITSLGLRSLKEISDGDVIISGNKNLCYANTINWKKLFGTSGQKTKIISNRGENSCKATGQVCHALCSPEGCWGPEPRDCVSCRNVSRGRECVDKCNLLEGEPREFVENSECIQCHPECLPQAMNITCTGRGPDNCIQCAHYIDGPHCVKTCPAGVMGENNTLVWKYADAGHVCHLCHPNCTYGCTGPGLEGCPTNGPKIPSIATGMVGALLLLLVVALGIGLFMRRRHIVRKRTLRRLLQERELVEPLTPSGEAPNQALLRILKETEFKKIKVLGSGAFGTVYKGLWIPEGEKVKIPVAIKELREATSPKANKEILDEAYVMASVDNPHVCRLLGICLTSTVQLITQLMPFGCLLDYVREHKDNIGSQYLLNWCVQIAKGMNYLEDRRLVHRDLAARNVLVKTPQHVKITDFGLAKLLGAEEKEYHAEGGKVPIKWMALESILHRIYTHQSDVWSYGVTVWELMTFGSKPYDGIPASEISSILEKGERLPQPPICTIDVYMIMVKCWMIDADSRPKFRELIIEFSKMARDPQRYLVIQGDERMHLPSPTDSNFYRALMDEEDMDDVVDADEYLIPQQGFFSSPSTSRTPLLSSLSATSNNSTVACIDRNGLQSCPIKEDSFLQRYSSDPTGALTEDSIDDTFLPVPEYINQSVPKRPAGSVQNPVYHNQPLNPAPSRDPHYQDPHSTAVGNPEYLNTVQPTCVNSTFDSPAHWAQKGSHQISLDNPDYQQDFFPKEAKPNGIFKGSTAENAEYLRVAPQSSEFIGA
T3 sequence (P04626 23-1255 S310F): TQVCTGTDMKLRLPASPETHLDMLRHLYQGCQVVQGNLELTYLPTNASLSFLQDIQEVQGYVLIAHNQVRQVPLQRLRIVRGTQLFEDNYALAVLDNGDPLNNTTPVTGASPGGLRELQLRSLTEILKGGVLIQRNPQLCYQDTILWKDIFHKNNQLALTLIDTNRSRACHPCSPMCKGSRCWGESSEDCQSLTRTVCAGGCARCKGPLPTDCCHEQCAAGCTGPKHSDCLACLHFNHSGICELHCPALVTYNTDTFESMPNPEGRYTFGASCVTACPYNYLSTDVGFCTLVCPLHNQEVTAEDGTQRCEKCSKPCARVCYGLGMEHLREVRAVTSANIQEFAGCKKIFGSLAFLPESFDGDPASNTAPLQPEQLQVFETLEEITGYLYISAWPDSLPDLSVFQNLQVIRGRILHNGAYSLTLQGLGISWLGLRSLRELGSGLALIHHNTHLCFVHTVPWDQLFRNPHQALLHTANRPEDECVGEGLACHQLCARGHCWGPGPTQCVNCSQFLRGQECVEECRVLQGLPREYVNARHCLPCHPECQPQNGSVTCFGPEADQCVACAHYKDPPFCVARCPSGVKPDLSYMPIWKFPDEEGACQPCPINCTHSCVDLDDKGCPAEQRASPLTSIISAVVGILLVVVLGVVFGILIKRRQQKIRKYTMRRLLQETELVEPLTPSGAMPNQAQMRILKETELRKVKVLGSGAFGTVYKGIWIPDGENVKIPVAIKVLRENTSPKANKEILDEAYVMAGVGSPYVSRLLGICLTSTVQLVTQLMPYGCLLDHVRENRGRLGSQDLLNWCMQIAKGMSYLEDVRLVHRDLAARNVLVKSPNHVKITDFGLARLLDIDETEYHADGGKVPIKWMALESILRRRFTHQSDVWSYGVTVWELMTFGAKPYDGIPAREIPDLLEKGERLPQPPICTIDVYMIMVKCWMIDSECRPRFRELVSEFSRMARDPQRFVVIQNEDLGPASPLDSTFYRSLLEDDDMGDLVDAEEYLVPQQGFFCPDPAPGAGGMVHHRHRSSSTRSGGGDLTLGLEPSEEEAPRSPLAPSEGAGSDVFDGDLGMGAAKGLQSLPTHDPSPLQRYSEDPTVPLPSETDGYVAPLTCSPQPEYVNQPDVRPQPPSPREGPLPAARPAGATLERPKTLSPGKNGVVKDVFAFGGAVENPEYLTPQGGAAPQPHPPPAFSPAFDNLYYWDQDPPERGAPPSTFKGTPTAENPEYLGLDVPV
T5 sequence (P00533 with tags, fused parts or gaps DUP768-770): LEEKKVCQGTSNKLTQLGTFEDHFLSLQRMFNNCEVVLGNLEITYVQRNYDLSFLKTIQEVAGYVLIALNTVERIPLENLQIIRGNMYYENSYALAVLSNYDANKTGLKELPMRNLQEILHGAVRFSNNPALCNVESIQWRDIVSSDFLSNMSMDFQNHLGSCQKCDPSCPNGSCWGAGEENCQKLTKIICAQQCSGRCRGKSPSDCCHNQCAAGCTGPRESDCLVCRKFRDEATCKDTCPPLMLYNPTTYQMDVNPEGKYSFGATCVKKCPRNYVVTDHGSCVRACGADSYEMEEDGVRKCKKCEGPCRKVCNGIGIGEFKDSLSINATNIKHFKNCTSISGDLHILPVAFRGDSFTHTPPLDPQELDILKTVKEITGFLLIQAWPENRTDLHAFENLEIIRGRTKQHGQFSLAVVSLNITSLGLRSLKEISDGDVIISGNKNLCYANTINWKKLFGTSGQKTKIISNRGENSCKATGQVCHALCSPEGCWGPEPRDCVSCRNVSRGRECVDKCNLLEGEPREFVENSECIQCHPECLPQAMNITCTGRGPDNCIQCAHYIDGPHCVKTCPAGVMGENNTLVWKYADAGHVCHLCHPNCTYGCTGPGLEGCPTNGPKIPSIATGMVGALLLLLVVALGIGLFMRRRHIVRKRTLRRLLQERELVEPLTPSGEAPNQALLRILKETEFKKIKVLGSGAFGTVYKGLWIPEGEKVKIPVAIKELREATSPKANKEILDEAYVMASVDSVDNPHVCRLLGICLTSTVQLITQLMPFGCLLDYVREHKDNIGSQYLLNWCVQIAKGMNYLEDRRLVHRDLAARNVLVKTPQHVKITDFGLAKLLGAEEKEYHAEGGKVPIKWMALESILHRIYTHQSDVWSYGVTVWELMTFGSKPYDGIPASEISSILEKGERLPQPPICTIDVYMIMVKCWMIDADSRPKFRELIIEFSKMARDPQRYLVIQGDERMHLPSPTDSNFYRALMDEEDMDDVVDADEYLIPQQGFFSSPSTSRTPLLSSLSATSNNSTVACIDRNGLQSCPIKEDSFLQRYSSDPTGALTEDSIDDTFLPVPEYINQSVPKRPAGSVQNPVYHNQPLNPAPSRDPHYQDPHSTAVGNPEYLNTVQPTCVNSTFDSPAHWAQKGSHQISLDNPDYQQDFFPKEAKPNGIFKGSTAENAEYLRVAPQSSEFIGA
T1 sequence (P00533 with tags, fused parts or gaps DUP771-773): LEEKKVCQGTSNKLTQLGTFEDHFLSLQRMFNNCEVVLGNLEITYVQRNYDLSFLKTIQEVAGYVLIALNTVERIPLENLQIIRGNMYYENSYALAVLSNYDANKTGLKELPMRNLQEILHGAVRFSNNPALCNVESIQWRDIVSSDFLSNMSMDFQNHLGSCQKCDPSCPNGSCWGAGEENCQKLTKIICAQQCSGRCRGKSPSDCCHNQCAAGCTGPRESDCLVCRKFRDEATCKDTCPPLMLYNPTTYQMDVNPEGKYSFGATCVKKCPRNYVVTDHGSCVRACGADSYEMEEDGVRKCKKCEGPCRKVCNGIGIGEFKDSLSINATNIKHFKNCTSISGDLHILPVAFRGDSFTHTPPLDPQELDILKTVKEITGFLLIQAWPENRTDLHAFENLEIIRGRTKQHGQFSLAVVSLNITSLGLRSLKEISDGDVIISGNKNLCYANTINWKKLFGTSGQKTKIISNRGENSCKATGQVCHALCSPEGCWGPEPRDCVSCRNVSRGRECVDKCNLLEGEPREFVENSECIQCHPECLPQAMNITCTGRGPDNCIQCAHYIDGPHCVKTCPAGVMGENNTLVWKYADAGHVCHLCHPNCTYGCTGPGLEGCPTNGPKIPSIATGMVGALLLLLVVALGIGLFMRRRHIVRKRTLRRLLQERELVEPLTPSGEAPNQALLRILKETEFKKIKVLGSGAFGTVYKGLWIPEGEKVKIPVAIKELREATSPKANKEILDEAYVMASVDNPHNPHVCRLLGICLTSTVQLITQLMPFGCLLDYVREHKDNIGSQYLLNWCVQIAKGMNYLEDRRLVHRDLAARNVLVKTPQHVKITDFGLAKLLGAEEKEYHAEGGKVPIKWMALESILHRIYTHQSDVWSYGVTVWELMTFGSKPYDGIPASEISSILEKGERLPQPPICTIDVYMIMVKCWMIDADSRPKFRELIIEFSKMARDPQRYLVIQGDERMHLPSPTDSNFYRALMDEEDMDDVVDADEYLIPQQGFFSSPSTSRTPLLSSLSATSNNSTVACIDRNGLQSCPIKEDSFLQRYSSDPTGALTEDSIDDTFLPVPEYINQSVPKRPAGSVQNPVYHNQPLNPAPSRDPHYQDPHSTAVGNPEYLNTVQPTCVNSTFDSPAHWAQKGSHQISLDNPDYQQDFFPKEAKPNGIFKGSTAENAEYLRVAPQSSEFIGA

Row | Compound | IC50 (EGFR NPH [1]) [nM] | IC50 (EGFR V3 [2]) [nM] | IC50 (HER2 S310F [3]) [nM] | IC50 (HER2 YVMA [4]) [nM] | IC50 (EGFR V3 [5]) [nM] | IC50 (EGFR NPH [6]) [nM] | IC50 (EGFR SVD [7]) [nM] | IC50 (HER2 WT [8]) [nM] | IC50 (HER2 WT [9]; [15]) [nM] | IC50 (HER2 WT [9]; [16]) [nM] | IC50 (EGFR SVD [10]) [nM] | IC50 (HER2 S310F [11]) [nM] | IC50 (HER2 YVMA [12]) [nM] | IC50 (EGFR WT [13]) [nM] | IC50 (EGFR WT [14]) [nM]
1 | C=CC(=O)Nc1cc2c(Nc3ccc(OCc4ccccn4)c(Cl)c3)ncnc2cc1OCC1(N(C)C)CC1 [compound 54] | 100 to 200 | 10 to 20 | 20 to 30 | 100 to 200 | 10 to 20 | 100 to 200 | 50 to 100 | 5 to 10 | 5 to 10 | ≤ 10 | 50 to 100 | 20 to 30 | 100 to 200 | > 1000 | > 1000
2 | C=CC(=O)Nc1cc2c(Nc3ccc(OCc4ccccn4)cc3F)ncnc2cc1OCCN1CCOCC1 [compound 56] | 300 to 500 | 20 to 30 | 50 to 100 | 200 to 300 | 20 to 30 | 300 to 500 | 300 to 500 | 20 to 30 | 20 to 30 | ≤ 50 | 300 to 500 | 50 to 100 | 200 to 300 | 300 to 500 | 300 to 500
3 | C=CC(=O)Nc1cc2c(Nc3cc(Cl)c(OCc4ccccn4)cc3F)ncnc2cc1OCCN1CCOCC1 [compound 57] | 50 to 100 | 10 to 20 | 10 to 20 | 50 to 100 | 10 to 20 | 50 to 100 | 30 to 50 | 5 to 10 | 5 to 10 | ≤ 10 | 30 to 50 | 10 to 20 | 50 to 100 | 500 to 1000 | 500 to 1000
4 | C=CC(=O)Nc1cc2c(Nc3cc(Cl)c(OCc4ccccn4)cc3F)ncnc2cc1OC1CCN(C)C1 (centres unmarked) [compound 60] | 200 to 300 | 10 to 20 | 20 to 30 | 300 to 500 | 10 to 20 | 200 to 300 | 200 to 300 | 5 to 10 | 5 to 10 | ≤ 10 | 200 to 300 | 20 to 30 | 300 to 500 | 200 to 300 | 200 to 300
5 | C=CC(=O)Nc1cc2c(Nc3ccc(OCc4ccccn4)c(Cl)c3)ncnc2cc1OC1CC(N(C)C)C1 (centres unmarked) [compound 62] | 30 to 50 | 10 to 20 | 5 to 10 | 30 to 50 | 10 to 20 | 30 to 50 | 20 to 30 | < 5 | < 5 | ≤ 5 | 20 to 30 | 5 to 10 | 30 to 50 | 300 to 500 | 300 to 500
6 | C=CC(=O)Nc1cc2c(Nc3ccc(Oc4ccccc4)cc3)ncnc2cc1OCCN1CCOCC1 [compound 63] | 300 to 500 | 50 to 100 | 50 to 100 | 300 to 500 | 50 to 100 | 300 to 500 | 300 to 500 | 30 to 50 | 30 to 50 | ≤ 50 | 300 to 500 | 50 to 100 | 300 to 500 | > 1000 | > 1000
7 | C=CC(=O)Nc1cc2c(Nc3ccc(OCc4ccccn4)c(Cl)c3)ncnc2cc1C#CC(C)(C)N(C)C [compound 66] | 100 to 200 | 20 to 30 | 10 to 20 | 50 to 100 | 20 to 30 | 100 to 200 | 50 to 100 | 50 to 100 | 50 to 100 |  | 50 to 100 | 10 to 20 | 50 to 100 | 500 to 1000 | 500 to 1000
8 | C=CC(=O)Nc1cc2c(Nc3ccc(Oc4ccc(C)nc4)c(C)c3)ncnc2cc1OC1CCN(C)C1 (centres unmarked) [compound 68] | 500 to 1000 | 100 to 200 | 30 to 50 | 300 to 500 | 100 to 200 | 500 to 1000 | 500 to 1000 | 10 to 20 | 10 to 20 | ≤ 20 | 500 to 1000 | 30 to 50 | 300 to 500 | 500 to 1000 | 500 to 1000
9 | C=CC(=O)Nc1cc2c(Nc3ccc(OCc4ccccn4)c(Cl)c3)ncnc2cc1N1CCC(N(C)C)CC1 [compound 78] | 300 to 500 | 30 to 50 | 50 to 100 | 500 to 1000 | 30 to 50 | 300 to 500 | 200 to 300 | 10 to 20 | 10 to 20 | ≤ 20 | 200 to 300 | 50 to 100 | 500 to 1000 | > 1000 | > 1000
